Experimental data reported in patent US12280090B2, “Antimicrobial peptides” (priority 2018, dated 2025).
Values after ≈ are worked out from the molar mass of the structure shown. Read-outs that look alike come from different tables or passages of the source. Bridge positions count the residues as written; N and C are the ends. Peptide text beside a SMILES is read from it.

Experiments:
Type in all cases: cell-based
[1] = tested on: Staphylococcus aureus: ATCC 6538P
Procedure: (§1) Microtiter broth dilution assays. HP2, HP3, and HP5 peptides are comprised of novel sequences that have not yet been described in the AMP literature. A common method for establishing antimicrobial activity of peptides is to perform microtiter broth assays. Microtiter broth dilution methods were implemented for determination of the minimum inhibitory concentration (MIC) and minimum bactericidal concentration (MBC). HP3 and HP5 were tested in addition to Ranatuerin-1/HP4 peptide as a positive control. HP2 could not be tested because multiple peptide synthesis attempts failed. The human cathelicidin, LL-37^30 was used as an additional positive control, and an unrelated similarly sized cationic peptide from the T. pallidum protein Tp0751 was used as a negative control. The potential AMPs were tested against bacteria representative of all three types of known cell envelope (Gram-positive, negative, and the complex and unique mycobacterial cell wall/envelope), given that a major mechanism used by AMPs is cell wall/membrane targeting.
(§2) Microtiter broth dilution assays. To test for antimicrobial activity, HP3, HP4/Ranatuerin-1, and HP5, peptides were synthesized by GenScript (Piscataway, New Jersey, USA). HP2 was not tested because the service provider was unable to synthesize this peptide despite multiple attempts. An unrelated, similarly-sized peptide from the Treponema pallidum protein Tp0751^55 was used as a negative control and the human cathelicidin, LL-37^30, was included as a positive control. Peptides were dissolved in filter-sterilized ultrapure water and tested for sterility by plating on non-selective agar plates followed by a 48 h incubation at 37° C. Two-fold serial dilutions of each peptide were prepared to obtain a series corresponding to ten times the required testing concentrations (2560, 1280, 640, 320, 160, 80, 40, 20, 10, and 5 μg/mL)^29.
(§3) Microtiter broth dilution methods were implemented for determination of the minimum inhibitory concentration (MIC) and minimum bactericidal concentration (MBC) of the four putative AMPs and the negative control peptide using procedures adapted from the R.E.W. Hancock Laboratory for cationic AMPs^29 and the CLSI methods for dilution antimicrobial susceptibility tests^56.
(§4) To assess antimicrobial activity across a diverse range of bacterial species, colonies were cultured overnight on Mueller Hinton agar plates (MHA; +5% sheep blood for S. pyogenes)^56 from frozen glycerol stock. Bacteria tested include Gram-negative rods (Escherichia coli: ATCC 9723H; Pseudomonas aeruginosa: ATCC 10148), Gram-positive cocci (Staphylococcus aureus: ATCC 6538P; Streptococcus pyogenes: unknown strain, hospital isolate), and Mycobacterium smegmatis (MC^2155; classified as neither Gram-positive nor Gram-negative). Bacterial suspensions were prepared by placing 3-5 morphologically similar colonies from the grown plate into sterile glass culture tubes containing 2 mL of Mueller Hinton Broth (MHB; +5% lysed horse blood for S. pyogenes) 56. Microbial inoculums from bacterial suspensions were prepared through a spectrophotometric adjustment of turbidity to 0.08-0.1 at 600 nm to achieve a turbidity equivalent to that of a 0.5 McFarland standard (1-2×10^8 CFU/mL)^29. The standardized bacterial inoculums were then diluted in MHB to obtain final cell densities of approximately […].
(§5) Ninety-six-well microtiter plates (Fisher Cat. No. CS003790; Nepean, Ontario, Canada) were prepared with 100 μL of E. coli, P. aeruginosa, S. aureus, S. pyogenes, or M. smegmatis bacterial suspension (5×10^5 CFU/mL) dispensed into each well of columns 1 through 11. Eleven microliters of the 10×AMP dilution series for all four peptides were added to each well from column 1 (2560 μg/mL) to column 10 (5 μg/mL) in all plates. Column 11 functioned as a positive control for bacterial growth in the absence of AMPs. Column 12 in each plate contained 100 μL of MHB as a sterility control (+5% lysed horse blood for S. pyogenes)^56. […]

[2] = tested on: Pseudomonas aeruginosa: ATCC 10148
Procedure: as §1, §2, §3, §4, §5

[3] = tested on: Escherichia coli: ATCC 9723H
Procedure: as §1, §2, §3, §4, §5

[4] = tested on: Streptococcus pyogenes: unknown strain, hospital isolate; details: for inhibitory or bacteriostatic activity: S. pyogenes; for MBC / MIC: unknown strain, hospital isolate
Procedure: as §1, §2, §3, §4, §5

[5] = tested on: Mycobacterium smegmatis (MC^2155)
Procedure: as §1, §2, §3, §4, §5

| SMILES | MBC ([1]; ATCC 6538) | MIC ([1]; ATCC 6538) | inhibitory or bacteriostatic activity ([1]; S. aureus) | MBC ([2]; ATCC 10148) | MIC ([2]; ATCC 10148) | inhibitory or bacteriostatic activity ([2]; P. aeruginosa) | MBC ([3]; ATCC 9723) | MIC ([3]; ATCC 9723) | inhibitory or bacteriostatic activity ([3]; E. coli) | inhibitory or bacteriostatic activity [4] | MBC [4] | MIC [4] | MIC ([1]; S. aureus, listed as H4) | MIC ([3]; E. coli, listed as H4) | bacteriostatic and bacteriocidal activity ([5]; M. smegmatis) | MBC ([2]; P. aeruginosa) | MIC ([2]; P. aeruginosa) | MBC ([5]; Mycobacterium (MC^2155)) | MIC ([5]; Mycobacterium (MC^2155)) |
| --- | --- | --- | --- | --- | --- | --- | --- | --- | --- | --- | --- | --- | --- | --- | --- | --- | --- | --- | --- |
| CC(C)C[C@H](NC(=O)[C@H](CS)NC(=O)[C@@H]1CCCN1C(=O)[C@H](CCCCN)NC(=O)[C@H](CCCNC(=N)N)NC(=O)[C@@H]1CCCN1C(=O)[C@H](Cc1ccccc1)NC(=O)[C@H](CO)NC(=O)[C@H](CCCCN)NC(=O)[C@@H](NC(=O)[C@H](Cc1c[nH]c2ccccc12)NC(=O)[C@H](CS)NC(=O)CNC(=O)[C@H](CO)NC(=O)[C@H](CC(C)C)NC(=O)[C@@H](N)CO)[C@@H](C)O)C(=O)N[C@@H](CCCNC(=N)N)C(=O)N[C@@H](CC(N)=O)C(=O)N[C@@H](CCCNC(=N)N)C(=O)O [HP3, SLSGCWTKSFPRKPCLRNR] (H-SLSGCWTKSFPRKPCLRNR-OH; N-terminus and C-terminus assumed) | >256 µg/mL | >256 µg/mL | no effect | >256 µg/mL | >256 µg/mL | no effect | >256 µg/mL | >256 µg/mL | no effect | no effect | >256 µg/mL | >256 µg/mL |  |  |  |  |  |  |  |
| CC[C@H](C)[C@H](NC(=O)[C@H](CCCCN)NC(=O)[C@H](CS)NC(=O)[C@H](C)NC(=O)[C@@H](NC(=O)[C@H](Cc1ccccc1)NC(=O)CNC(=O)[C@H](CC(C)C)NC(=O)CNC(=O)[C@@H](NC(=O)[C@H](CCCCN)NC(=O)CNC(=O)[C@H](CC(C)C)NC(=O)[C@H](CC(N)=O)NC(=O)[C@H](CCCCN)NC(=O)[C@H](CC(C)C)NC(=O)[C@@H](NC(=O)[C@H](CO)NC(=O)[C@H](CC(C)C)NC(=O)[C@H](CCSC)NC(=O)[C@@H](N)CO)C(C)C)C(C)C)C(C)C)C(=O)N[C@@H](CC(N)=O)C(=O)N[C@@H](CCCCN)C(=O)N[C@@H](CCC(N)=O)C(=O)N[C@@H](CS)C(=O)O [HP4] (H-SMLSVLKNLGKVGLGFVACKINKQC-OH; N-terminus and C-terminus assumed) |  | 97 µM |  | >256 µg/mL | >256 µg/mL | no effect |  | 48 µM |  | no effect | >256 µg/mL | >256 µg/mL | 256 µg/mL | 128 µg/mL |  |  |  |  |  |
| CC[C@H](C)[C@H](NC(=O)[C@H](CC(C)C)NC(=O)[C@H](CCCCN)NC(=O)[C@H](CCCCN)NC(=O)[C@H](CS)NC(=O)[C@H](CCCNC(=N)N)NC(=O)[C@H](CCC(=O)O)NC(=O)[C@@H](NC(=O)[C@@H]1CCCN1C(=O)[C@@H](NC(=O)[C@H](CCC(=O)O)NC(=O)[C@H](CO)NC(=O)[C@H](CS)NC(=O)[C@H](CCC(=O)O)NC(=O)[C@H](CCC(=O)O)NC(=O)[C@H](CCCCN)NC(=O)[C@@H](NC(=O)[C@H](CC(C)C)NC(=O)[C@H](CCC(=O)O)NC(=O)[C@H](CCC(=O)O)NC(=O)[C@H](CC(C)C)NC(=O)[C@H](C)NC(=O)[C@H](CCCNC(=N)N)NC(=O)[C@H](CC(C)C)NC(=O)[C@H](CC(N)=O)NC(=O)[C@H](CO)NC(=O)[C@@H]1CCCN1C(=O)[C@@H](N)CC(N)=O)C(C)C)[C@@H](C)CC)C(C)C)C(=O)N[C@@H](Cc1ccc(O)cc1)C(=O)NCC(=O)N[C@@H](Cc1ccc(O)cc1)C(=O)N[C@@H](CCCNC(=N)N)C(=O)N[C@@H](CCCCN)C(=O)O [HP5] (H-NPSNLRALEELVKEECSEIPVERCKKLIYGYRK-OH; N-terminus and C-terminus assumed) | >256 µg/mL | >256 µg/mL | no effect | >256 µg/mL | >256 µg/mL | no effect | >256 µg/mL | >256 µg/mL | no effect | no effect | >256 µg/mL | >256 µg/mL |  |  | weak bacteriostatic and bacteriocidal activity |  |  |  |  |
| CC[C@H](C)[C@H](NC(=O)[C@H](CCCCN)NC(=O)[C@H](CCC(=O)O)NC(=O)[C@H](CCCCN)NC(=O)[C@H](CO)NC(=O)[C@H](CCCCN)NC(=O)[C@H](CCCNC(=N)N)NC(=O)[C@H](Cc1ccccc1)NC(=O)[C@H](Cc1ccccc1)NC(=O)[C@H](CC(=O)O)NC(=O)CNC(=O)[C@H](CC(C)C)NC(=O)[C@@H](N)CC(C)C)C(=O)NCC(=O)N[C@@H](CCCCN)C(=O)N[C@@H](CCC(=O)O)C(=O)N[C@@H](Cc1ccccc1)C(=O)N[C@@H](CCCCN)C(=O)N[C@@H](CCCNC(=N)N)C(=O)N[C@H](C(=O)N[C@H](C(=O)N[C@@H](CCC(N)=O)C(=O)N[C@@H](CCCNC(=N)N)C(=O)N[C@H](C(=O)N[C@@H](CCCCN)C(=O)N[C@@H](CC(=O)O)C(=O)N[C@@H](Cc1ccccc1)C(=O)N[C@@H](CC(C)C)C(=O)N[C@@H](CCCNC(=N)N)C(=O)N[C@@H](CC(N)=O)C(=O)N[C@@H](CC(C)C)C(=O)N[C@H](C(=O)N1CCC[C@H]1C(=O)N[C@@H](CCCNC(=N)N)C(=O)N[C@H](C(=O)N[C@@H](CCC(=O)O)C(=O)N[C@@H](CO)C(=O)O)[C@@H](C)O)C(C)C)[C@@H](C)CC)C(C)C)[C@@H](C)CC [LL37 + ve_AcOH, reference compound] |  |  |  |  |  |  |  |  |  |  |  |  |  |  |  | >256 µg/mL | >256 µg/mL |  |  |
| CC[C@H](C)[C@H](NC(=O)[C@H](Cc1ccccc1)NC(=O)[C@@H]1CCCN1C(=O)[C@H](CC(C)C)NC(=O)[C@@H](N)Cc1ccccc1)C(=O)N[C@@H](C)C(=O)N[C@@H](CCCNC(=N)N)C(=O)N[C@@H](CC(C)C)C(=O)N[C@@H](C)C(=O)N[C@@H](C)C(=O)N[C@@H](CCCCN)C(=O)N[C@H](C(=O)N[C@@H](Cc1ccccc1)C(=O)N1CCC[C@H]1C(=O)N[C@@H](CO)C(=O)N[C@H](C(=O)N[C@H](C(=O)N[C@H]1CSSC[C@@H](C(=O)O)NC(=O)[C@H](CCCCN)NC(=O)[C@H](CCCCN)NC(=O)[C@H]([C@@H](C)O)NC(=O)[C@H](C(C)C)NC(=O)[C@H](CO)NC1=O)[C@@H](C)CC)[C@@H](C)CC)C(C)C [Peptide R4] (H-FLPFIARLAAKVFPSIICSVTKKC-OH; disulfide 18-24; N-terminus and C-terminus assumed) | 4 µg/mL (≈ 1.51 µM) | 4 µg/mL |  | >256 µg/mL | >256 µg/mL |  | 16 µg/mL (≈ 6.03 µM) | 16 µg/mL |  |  |  |  |  |  |  |  |  | 4 µg/mL (≈ 1.51 µM) | 4 µg/mL (≈ 1.51 µM) |
